Structures are written as SMILES.

One test deals with lichen planus. The experiment in a line: Treatment example: patient with lichen planus. Format: in vivo, human. As to conditions: combination with crisaborole, both administered topically. The protocol:
A patient with lichen planus is treated with a combination of N-(2-furylmethyl)-N-[(6-methoxy-2-oxo-1H-quinolin-3-yl)methyl]-4-methyl-benzamide (Compound I-1) and crisaborole, both administered topically.

The subject of a further test is psoriasis. In words: Treatment example: patient with psoriasis. To be noted: topical formulation. The format is in vivo, human. The protocol:
A patient with psoriasis is treated with a topical formulation of N-(2-furylmethyl)-N-[(6-methoxy-2-oxo-1H-quinolin-3-yl)methyl]-4-methyl-benzamide (Compound I-1).

The test system of test [1] is Il12b. In words: RNA-Seq / ATAC-Seq of lipopolysaccharide-induced genes in treated macrophages. The format is cell-based. As to conditions: for rank of Il12b among the most strongly inhibited lipopolysaccharide-induced genes: genes with RPKM>4 and FC>10, ranked by fold change (Max RPKM with/without compound). An excerpt: Our screening experiment identified as compounds that […]. Using ATAC-Seq and RNA-Seq analyses, we confirmed that the screen indeed identified hits that work by affecting chromatin, and confirmed that β adrenergic agonists, (and in particular β2 adrenergic agonists) are indeed exquisitely selective inhibitors of Il12b gene expression.
(§1) The inhibition of Il12b by β agonists occurs upon stimulation of macrophages with other inflammatory stimuli, including CpG DNA, double stranded RNA, and imiquimod. We confirmed that the cAMP/PKA pathway, but not the exchange factor directly activated by cAMP (EPAC) pathway, was largely responsible for mediating the Il12b suppression by 0-agonists.
FIG. 7B depicts a fold change box plot in samples treated with UK17 (3-fluoro-N′-[(5-nitro-2-thienyl)methylene]benzohydrazide (CID #6895129)), classifying lipopolysaccharide-induced genes by gene-regulation cluster as previously described in Tong A. et al., A Stringent Systems Approach Uncovers Gene-Specific Mechanisms Regulating Inflammation, Cell 165 165-179 (2016). Box plots indicate the distribution of fold change values for each cluster. Red lines are drawn at 1 and −1, indicating a 2-fold up or down-regulation of genes. Il12b is labeled in red.

For another test, the system named is chronic eczema. In words: Treatment example: patient with chronic eczema. Format: in vivo, human. To be noted: topical formulation.
Test [2] deals with Il12b. In words: Dual-fluorescence reporter macrophage cell line screen, lipopolysaccharide-stimulated: chromatinized Il12b-eGFP versus minimal Il12b-DsRed reporter. The format is cell-based. To be noted: lipopolysaccharide-stimulated dual-fluorescence reporter macrophage cell line. The source says: We hypothesized that molecules that inhibit the “chromatinized” Il12b reporter but not the “minimal” Il12b reporter would offer a greater degree of Il12b inhibition selectivity.
We generated a dual-fluorescence reporter macrophage cell line having both a [Il12b]-[eGFP] chromatin-based construct and a [Il12b]-[DSred] plasmid vector. FIG. 3. We then stimulated an […] response in the cell line using lipopolysaccharide, an activator of Il12b expression, and tested a library of over 60,000 known and unknown (i.e., undescribed in the literature) small-molecule compounds.
Additional compounds in Formulas (I)-(IV) were screened following the same procedure as described above, with eGFP fluorescence as a readout for inhibition of IL12b.

Another test has as its system vitiligo. In words: Treatment example: patient with vitiligo. Format: in vivo, human. To be noted: topical formulation. The method, then:
A patient with vitiligo is treated with a topical formulation of 11-(5-hydroxy-2-nitrobenzyl)-7,11-diazatricyclo[7.3.1.0˜2,7˜]trideca-2,4-dien-6-one (Compound III-1).

A further test concerns alopecia. The experiment in a line: Treatment example: patient with alopecia. Format: in vivo, human. To be noted: topical formulation also comprising apremilast.
The test system of a further test is Behçet's disease. The experiment in a line: Treatment example: patient with Behçet's disease. The format is in vivo, human. As to conditions: topical formulation.
For test [3], the system named is imiquimod-induced psoriasiform dermatitis. In words: Imiquimod-induced psoriasiform dermatitis model, PASI clinical scoring. Format: in vivo. To be noted: WT mice, topical imiquimod, daily intraperitoneal injection, vs saline/PBS. An excerpt: FIG. 16 depicts histology of WT mice or b1/b2 KO mice 5 days after topically applying imiquimod to their skin. Histology confirms greater thickening and scale of the skin in b1/b2 KO mice.
FIG. 19 depicts WT mice given intraperitoneal injection of the b2 selective adrenergic agonist clenbuterol or vehicle control (saline) daily in mice given topical imiquimod to induce psoriasiform dermatitis.
FIG. 20 depicts the PASI clinical scoring PBS-treated WT mice versus clenbuterol-treated WT mice.

Test [4] concerns Il12b. The experiment in a line: Il12b expression in human macrophages treated with PGE2 (RNA-Seq, RPKM vs DMSO). The format is cell-based.
From the text: as §1
FIG. 10 depicts a heatmap of percent expression of RPKMs as a percent of the maximum RPKM within the DMSO sample for genes with RPKMs>3 and FC>10 in at least one DMSO timepoint. The heatmap represents that for the averaged samples for each gene between Donor 0 IL34 and Donor 0 MCSF. In the left heatmap, red indicates percent expression equal to or higher than 100%. DMSO and PGE2 samples are indicated as such for timepoints 0 hr, 1 hr, 2 hr, and 6 hr. […] Here, red represents a positive difference equal to or over 100%, indicating induction, and blue representing a negative difference equal to or less than −100%, indicating inhibition. (n=2).
FIG. 11 depicts log 2 of the fold change of RPKMS after PGE2-treatment and those after DMSO treatment are shown in this scatter plot for genes with RPKMs>3 and FC>10 in at least on DMSO timepoint and this graph represents the 6-hour timepoint. […]

As for `COc1ccc2[nH]c(=O)c(CN(Cc3ccco3)C(=O)c3ccc(C)cc3)cc2c1` [Compound I-1, N-(2-furylmethyl)-N-[(6-methoxy-2-oxo-1H-quinolin-3-yl)methyl]-4-methyl-benzamide], the clinical outcome in the test with lichen planus and with psoriasis was “Resolution of symptoms” each time.
On to `O=C(NN=Cc1ccc([N+](=O)[O-])s1)c1cccc(F)c1` [II-1, 3-fluoro-N′-[(5-nitro-2-thienyl)methylene]benzohydrazide], for which the “rank of Il12b among the most strongly inhibited lipopolysaccharide-induced genes” value with Il12b [1] is on record as ≤ 20. In addition, in the test on chronic eczema, the clinical outcome was “Resolution of symptoms”. In addition, the “selective inhibition of the chromatinized Il12b reporter (eGFP) but not the minimal reporter (DsRed)” value with Il12b [2] is on record as “selective inhibitors of chromatinized Il12b”; in the test on Il12b [2] (listed as UK17), “selective for inhibition of chromatinized Il12b”.
In the case of `O=c1cccc2n1CC1CC2CN(Cc2cc(O)ccc2[N+](=O)[O-])C1` (stereo not drawn) [III-1, 11-(5-hydroxy-2-nitrobenzyl)-7,11-diazatricyclo[7.3.1.0˜2,7˜]trideca-2,4-dien-6-one], in the test on Il12b [2], the “selective inhibition of the chromatinized Il12b reporter (eGFP) but not the minimal reporter (DsRed)” value is “selective inhibitors of chromatinized Il12b”. The clinical outcome in the test with vitiligo is on record as “Resolution of vitiligo”.
For the molecule `COc1ccc(Br)cc1/C=C/C(=O)c1ccc(OC)c(OC)c1` [IV-1, 3-(5-bromo-2-methoxyphenyl)-1-(3,4-dimethoxyphenyl)-2-propen-1-one], the “rank of Il12b among the most strongly inhibited lipopolysaccharide-induced genes” value in the test with Il12b [1] was ≤ 20. In addition, the clinical outcome in the test on alopecia is reported as “Resolution of alopecia”; with Behçet's disease, “Resolution of disease”. Moreover, in the test on Il12b [2], the “selective inhibition of the chromatinized Il12b reporter (eGFP) but not the minimal reporter (DsRed)” value was “selective inhibitors of chromatinized Il12b”.
`CC(C)(C)NCC(O)c1cc(Cl)c(N)c(Cl)c1` (stereo not drawn) [clenbuterol]: the PASI clinical score entry in test [3] is reported as “reduction in score”.
`CCCCC[C@H](O)/C=C/[C@H]1[C@H](O)CC(=O)[C@@H]1C/C=C\CCCC(=O)O` [prostaglandin E2, reference compound]: the “selective inhibition of Il12b gene expression” value in the test on Il12b [1] (RNA-Seq and ATAC-Seq analyses, macrophages) was “selectively inhibit IL12b expression”. For the same molecule, the “selective inhibition of Il12b in human macrophages” value in the test on Il12b [4] is recorded as “exquisitely selective inhibitor of Il12b”.

Source of the values: patent publication US20240366586A1, “METHODS AND AGENTS FOR MODULATING THE IMMUNE RESPONSE” (The Regents of the University of California, priority 2021, published 2024).
